{"source": "patent US20120130146A1", "about": "“CONTINUOUS ADMINISTRATION OF CILENGITIDE IN CANCER TREATMENTS” (Merck Patent GmbH, priority 2009, published 2012)", "key": {"A549": {"tested_on": "A549", "assay": "Serum growth stimulation assay on A549 NSCLC cells, Example 5", "assay_type": "cell-based, human", "details": "for EC50: Homo sapiens, NSCLC A549, chemotherapeutic alone or + Cilengitide", "source_text": "(§1) The methods established and described in detail previously (Goodman and Hahn a; b) were used to measure the effect of combinations of integrin inhibitors and chemotherapeutics on carcinoma cell and human endothelial cell proliferation.\n(§2) Points were run in duplicate or in triplicate. Reagent blanks, containing media plus Alamar Blue without cells, were run on each plate. Blank values were subtracted from test values and were routinely 5-10% of uninhibited control values.\n(§3) 5.5 Methods of Evaluation and Statistics Chemotherapeutic agents and αv-integrin blockers were serially diluted alone or together (combination therapy). In some assays the chemotherapeutic agent was serially diluted alone or in combination with of alpha-v integrin blocker. Growth inhibition curves were plotted and a shift of the combination therapy curve to lower concentrations in relation to the single agent curves was interpreted as an additional effect, produced by combination versus monotherapy.\n(§4) The αv-integrin competitive inhibitor Cilengitide (EMD 121974) was tested alone and in combination with vinorelbine in a serum growth stimulation assay using human carcinoma cells or human umbilical vein endothelial cells (HUVECs). In these assays cells are cultured in serum, or in an endothelial growth stimulation medium (Goodman & Hahn)."}, "[1]": {"tested_on": "human umbilical vein endothelial cells (HUVECs)", "assay": "Growth (Alamar Blue) assay on HUVEC, Example 5", "assay_type": "cell-based", "details": "Homo sapiens", "source_text": "as §1, §2, §3, §4"}, "A498": {"tested_on": "A498", "assay": "Cell proliferation assay on A498 renal carcinoma cells", "assay_type": "cell-based, human", "details": "for EC50: Homo sapiens, Renal A498, chemotherapeutic alone or + Cilengitide", "source_text": "as §1, §2, §3, §4\nCilengitide concentration is 2 μM (constant)."}, "Detroit 562": {"tested_on": "Detroit 562", "assay": "Cell proliferation assay on SCCHN Detroit 562 cells", "assay_type": "cell-based, human"}, "[2]": {"details": "in combination with 2 μM Cilengitide"}}}
{"smiles": "CC(=O)O[C@H]1C(=O)[C@@]2(C)[C@H]([C@H](OC(=O)c3ccccc3)[C@]3(O)C[C@H](OC(=O)[C@H](O)[C@@H](NC(=O)c4ccccc4)c4ccccc4)C(C)=C1C3(C)C)[C@]1(OC(C)=O)CO[C@@H]1C[C@@H]2O", "note": "[Paclitaxel]", "values": [{"measurement": "EC50", "setting": "A549", "result": 8, "unit": "nM"}, {"measurement": "IC50", "setting": "[1]; agent alone", "result": 10, "unit": "nM"}, {"measurement": "IC50", "setting": "[1]; [2]", "result": 0.05, "unit": "nM"}, {"measurement": "EC50", "setting": "A498", "result": 100, "unit": "nM"}]}
{"smiles": "CCC1=C[C@@H]2CN(C1)Cc1c([nH]c3ccccc13)[C@@](C(=O)OC)(c1cc3c(cc1OC)N(C)[C@H]1[C@@](O)(C(=O)OC)[C@H](OC(C)=O)[C@]4(CC)C=CCN5CC[C@]31[C@@H]54)C2", "note": "[Vinorelbine]", "values": [{"measurement": "enhancement of growth inhibition by the presence of cilengitide", "setting": "A549; A549", "result": "synergistically enhanced"}, {"measurement": "EC50", "setting": "A549", "result": 8, "unit": "nM"}, {"measurement": "enhancement of growth inhibition by the presence of cilengitide", "setting": "Detroit 562", "result": "synergistically enhanced"}, {"measurement": "IC50", "setting": "[1]; agent alone", "result": 20, "unit": "nM"}, {"measurement": "IC50", "setting": "[1]; [2]", "result": 0.8, "unit": "nM"}, {"measurement": "enhancement of growth inhibition by the presence of cilengitide", "setting": "A498; A498", "result": "synergistically enhanced"}, {"measurement": "EC50", "setting": "A498", "result": 60, "unit": "nM"}]}
